# Data: patent publication US20240238268A1, “TREATMENTS AND METHODS FOR TREATING ALZHEIMER'S DISEASE” (Board of Supervisors of Louisiana State University and …, priority 2021, published 2024)
# Assays:
# Format in all cases: in vivo, mouse
# NOTCH1 = NOTCH1 protein level in brain, capillary-based immunoassay; conditions: aged C57 female mice; 10 mg/kg, IP, 7 days
# Description: NOTCH1 protein level in cortex, FIG. 13A, and hippocampus, FIG. 13B, was decreased in aged 3xTg-AD female mice v. male counterparts. Treatment with specific PRMT4 specific inhibitor (TP-064, 30 mg/kg, 7 days, IP) or AAV knockdown of PRMT4 enhanced NOTCH1 protein level in cortex, […], and hippocampus, […], in aged 3xTg-AD female mice. Relative NOTCH1 protein (˜110 kDa) level was measured by capillary-based immunoassay and normalized to total protein. * p<0.05 v. control male mice evaluated by unpaired t-test in FIGS. 13A and 13B. * p<0.05 compared to C57, #p<0.05 compared to 3xTg-AD+TP-064, $p<0.05 compared to 3xTg-AD+AAV, evaluated by one-way ANOVA with Tukey's post-hoc analyses in FIGS. 13C and 13D.
# (§1) FIGS. 16A-16G show NOTCH1 inhibition (via crenigacestat) decreased ZO-1 and occluding and AAV knockdown of PRMT4 enhanced ZO-1 and occludin. […] C57 female mice. FIGS. 16B and 16C show crenigacestat (10 mg/kg, IP, 7 days) reduced NOTCH1 (110 kDa) protein level in the cortex and hippocampus of aged C57 female mice. AAV knockdown of PRMT4 increased NOTCH1 protein level. FIGS. 16D-16G show ZO-1 (220 kDa), and occludin (60 kDa) tight junctional proteins were decreased in the cortex and hippocampus in presence of NOTCH1 inhibitor in C57. PRMT4-AAV increased the expression of ZO-1 and occludin in aged 3xTg-AD female mice. Protein level was measured by capillary-based immunoassay and normalized to total protein. * p<0.05 compared to C57, #p<0.05 compared to 3xTg-AD, $p<0.05 compared to 3xTg-AD+AAV as evaluated by one-way ANOVA with Tukey's post-hoc analyses.
# Capillary-phoresis immunoassay via ProteinSimple®: Quantification of all protein targets was achieved using Simple Western analysis in a Jess™ apparatus per the manufacturer's protocol (ProteinSimple, Bio-techne, Minneapolis, MN). […] Following homogenization and centrifugation (10,000×g, 5 min, 4° C.), protein concentration was determined in tissue protein supernatant samples using DC Protein Assay (Cat. No. 5000112, Bio-Rad Laboratories, Hercules, California) according to manufacturer instructions. […] Antibody diluent (ProteinSimple, Bio-techne, Minneapolis, MN) was used for all antibody dilutions as follows: PRMT4 (1:50, RRID: AB_2068436), PRMT6 (1:100, Cell Signaling Technology cat. 14641), eNOS (1:200, RRID: AB_10850618), nNOS (1:100, RRID: AB_2152488), iNOS (1:100, RRID: AB_10000625), DDAH2 (1:50, RRID: AB_2640442) Antibodies were detected using HRP-conjugated secondary anti-rabbit, and -mouse. Relative protein levels were calculated by measuring the area under the peak of a chemiluminescent chromatogram and normalized to total capillary chemiluminescence for a given sample. […]
# ZO-1 = ZO-1 tight junction protein level in brain, capillary-based immunoassay; conditions: C57 mice; 10 mg/kg, IP, 7 days
# Description: as §1
# (§2) Capillary-phoresis immunoassay via ProteinSimple®: Quantification of all protein targets was achieved using Simple Western analysis in a Jess™ apparatus per the manufacturer's protocol (ProteinSimple, Bio-techne, Minneapolis, MN). […] Following homogenization and centrifugation (10,000×g, 5 min, 4° C.), protein concentration was determined in tissue protein supernatant samples using DC Protein Assay (Cat. No. 5000112, Bio-Rad Laboratories, Hercules, California) according to manufacturer instructions. […]
# occludin = assay: Occludin tight junction protein level in brain, capillary-based immunoassay; conditions: C57 mice; 10 mg/kg, IP, 7 days
# Description: as §1, §2
# C57 mice = assay: Neurovascular coupling: microvessel diameter, two-photon laser scanning microscopy, C57 mice; conditions: 10 mg/kg, 7 days, IP
smiles,measurement,setting,value
C[C@H](NC(=O)CCC(F)(F)F)C(=O)N[C@@H]1C(=O)N(CCO)c2ncccc2-c2ccccc21 [Crenigacestat],NOTCH1 protein level in cortex,NOTCH1,reduced
same,NOTCH1 protein level in hippocampus,NOTCH1,reduced
same,ZO-1 protein level in cortex,ZO-1,decreased
same,ZO-1 protein level in hippocampus,ZO-1,decreased
same,occludin protein level in cortex,occludin,decreased
same,occludin protein level in hippocampus,occludin,decreased
same,microvessel diameter,C57 mice,decrease
